The structures appear in SMILES notation. Some results are limits rather than exact numbers.

The source of these data is US8158587B2, “Compound having histone deacetylase-inhibiting activity, and pharmaceutical composition comprising the compound as an active ingredient” (Kyushu Institute of Technology, priority 2006, dated 2012).

One assay concerns the target T1, human HDAC4 (Homo sapiens, UniProt P56524).
T1 construct: made in house; host or cells: 293T cells (transient transfection, anti-FLAG immunoprecipitation, FLAG peptide elution)
In words: HDAC-inhibiting activity, coumarin-labeled acetylated histone peptide assay. Type of assay: biochemical. Particulars: human HDAC4 from transfected 293T cells; 37° C., 30 minutes; read-out: HDAC-inhibiting activity IC50 HDAC4. As for the experimental part: In carrying out HDAC-inhibiting activity measurements, HDAC solutions were prepared in the following manner. […] The human HDAC1 expression vector used was pcDNA3-HD1 (Yang, W. M., Yao, Y. L., Sun, […]. & Seto, E. (1997) J. Biol. Chem. 272, 28001-28007), the human HDAC4 expression vector used was pcDNA3-HD4 ([…]., Nagase, […]. Biol. Chem. 274, 11713-11720), and the murine HDAC6 expression vector used was pcDNA3-mHDA2/HDAC6 ([…]. Biol. Chem. 274, 2440-2445). After 24 hours of incubation, cells were recovered, washed with PBS, suspended in lysis buffer (50 mM Tris-HCl (pH 7.5), 120 mM NaCl, 5 mM EDTA, 0.5% Nonidet P-40), and sonicated. The supernatant was collected by centrifugation and then deprived of nonspecific proteins using Protein A/G plus agarose beads (Santa Cruz Biotechnologies, Inc.). Thereafter, anti-FLAG M2 antibody (Sigma-Aldrich Inc.) was added, and the reaction was allowed to proceed at 4° C. for 2 hours. To this were added agarose beads, the reaction was allowed to proceed at 4° C. for 3 hours, and the agarose beads were washed three times with lysis buffer and then once with HD buffer (20 mM Tris-HCl (pH 8.0), 150 mM NaCl, 10% glycerol). […] HDAC-inhibiting activity evaluation in each in vitro system was made as follows. Each test compound was dissolved in DMSO, a stock solution with a concentration of 10 mM was thus prepared and this was used as an inhibitor stock solution. The assay was carried out by incubating the HDAC solution and a coumarin-labeled acetylated histone peptide solution in the presence of the test compound at 37° C. for 30 minutes (reaction volume 20 μl). To the reaction mixture was added 30 μl of trypsin, and the aminomethylcoumarin released by the enzymatic reaction was assayed using a fluorescent plate reader. In a negative control assay, no inhibitor was added to the reaction system and the same procedure was carried out.

Assay [1] deals with human wild type p21 promoter. In words: p21 promoter assay (luciferase) in MFLL-9 cells. Type of assay: cell-based. Particulars: 20 hours, concentration giving 1000% luminescence relative to negative control (100%). As for the experimental part: As an HDAC-inhibiting activity in an […] system, the following measurement was carried out using the p21 promoter inducing activity as an index. MFLL-9 cells used in the experiment are cells stably retaining a fusion gene (Dr. B. Vogelstaein) from the human wild type p21 promoter and luciferase gene. They were cultured using phenol red-free DMEM supplemented with 10% FBS in a steam-saturated incubator at 37° C. in the presence of 5% carbon dioxide. These MFLL-9 cells were sowed onto a 96-well microplate at a cell density of 2×10^4 cells/well and, after 24 hours of cultivation in 99 μl, per well, of the medium mentioned above, each test compound solution was added, followed by 20 hours of incubation. […] In a negative control, the same procedure was carried out without adding any inhibitor to the reaction system.
Using Luciferase Assay Reagent (Promega), the intensity of the luminescence due to the product of the enzymatic reaction involving luciferase expressed within cells was measured.

The subject of assay [2] is melanoma cell line LOX-IMVI. Briefly: Human cancer cell line panel, proliferation (sulforhodamine B). Type of assay: cell-based. Particulars: 2 days of cultivation, read-out: 50% inhibitory concentration, proliferation. The text has this:
(§1) The characteristics of the human cancer cell proliferation-inhibiting activity of the compounds of the present invention were examined by the “method of evaluating the mechanisms of action of compounds using a panel of human cancer cell lines” as proposed by Yamori et al. (cf. Gan to Kagaku Ryoho (Cancer and Chemotherapy) 29 Suppl. II (2002) and Cancer Chemother. Pharmacol. 52 Suppl. I, S74-79 (2003)).
(§2) This system includes […] (7 lung cancer, 6 stomach cancer, 5 colon cancer, 5 ovarian cancer, 6 brain tumor, […], 2 kidney cancer and 2 prostate cancer cell lines as well as one melanoma line) and the method comprises measuring the in vitro drug susceptibilities of those cancer cell lines and expressing the differences in drug susceptibility among the respective cancer cell lines as a fingerprint. […] By utilizing this property, it is possible to estimate the mechanisms of action of a compound. The above method is also characterized in that an anticancer substance showing new and unique mechanisms of action different from those of the existing anticancer agents can be selected.
(§3) Cancer cells of each cell line are sowed onto a 96-well plate, a sample solution is added on the next day and, after 2 days of cultivation, the cell proliferation is measured by colorimetry using sulforhodamine B. The deviations in effective concentration for the respective cancer cell lines from the mean effective drug concentration for the 39 cancer cell lines subjected to measurement are calculated and shown in the form a fingerprint.

The subject of assay [3] is lung cancer cell line NCI-H522. The assay is described as above. In kind it is cell-based. Particulars: NCI-H522, 2 days of cultivation; read-out: 50% inhibitory concentration, proliferation.
From the text: as §1, §2, §3

T1 sequence (P56524 whole entry): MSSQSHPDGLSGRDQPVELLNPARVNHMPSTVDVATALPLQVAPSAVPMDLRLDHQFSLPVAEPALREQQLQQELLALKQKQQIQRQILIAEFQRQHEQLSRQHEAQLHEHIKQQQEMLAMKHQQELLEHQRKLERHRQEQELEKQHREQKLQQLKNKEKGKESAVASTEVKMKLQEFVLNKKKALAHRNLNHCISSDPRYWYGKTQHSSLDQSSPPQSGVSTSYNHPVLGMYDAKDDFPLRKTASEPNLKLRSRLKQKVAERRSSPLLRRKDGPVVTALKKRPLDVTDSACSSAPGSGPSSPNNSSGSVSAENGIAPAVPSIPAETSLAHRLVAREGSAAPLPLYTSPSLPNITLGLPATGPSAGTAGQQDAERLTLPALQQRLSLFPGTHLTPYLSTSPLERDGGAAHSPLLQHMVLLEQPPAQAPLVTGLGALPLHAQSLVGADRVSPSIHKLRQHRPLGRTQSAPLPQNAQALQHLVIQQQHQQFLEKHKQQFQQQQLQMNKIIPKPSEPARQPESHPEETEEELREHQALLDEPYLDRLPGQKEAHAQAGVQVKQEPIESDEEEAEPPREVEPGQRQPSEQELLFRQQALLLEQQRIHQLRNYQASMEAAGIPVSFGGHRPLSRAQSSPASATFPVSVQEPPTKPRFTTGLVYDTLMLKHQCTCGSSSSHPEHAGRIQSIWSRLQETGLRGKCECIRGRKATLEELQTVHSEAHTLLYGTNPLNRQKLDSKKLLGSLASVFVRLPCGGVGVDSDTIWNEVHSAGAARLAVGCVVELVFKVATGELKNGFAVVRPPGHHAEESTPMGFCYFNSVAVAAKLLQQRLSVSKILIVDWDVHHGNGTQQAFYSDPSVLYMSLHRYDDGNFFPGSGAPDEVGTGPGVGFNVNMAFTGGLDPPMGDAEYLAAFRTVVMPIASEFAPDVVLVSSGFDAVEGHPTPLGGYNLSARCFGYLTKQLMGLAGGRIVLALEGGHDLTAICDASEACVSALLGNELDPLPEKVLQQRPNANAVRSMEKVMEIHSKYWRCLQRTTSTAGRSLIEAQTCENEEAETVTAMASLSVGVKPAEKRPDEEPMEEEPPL
T1 sequence (O15379 whole entry, further chain): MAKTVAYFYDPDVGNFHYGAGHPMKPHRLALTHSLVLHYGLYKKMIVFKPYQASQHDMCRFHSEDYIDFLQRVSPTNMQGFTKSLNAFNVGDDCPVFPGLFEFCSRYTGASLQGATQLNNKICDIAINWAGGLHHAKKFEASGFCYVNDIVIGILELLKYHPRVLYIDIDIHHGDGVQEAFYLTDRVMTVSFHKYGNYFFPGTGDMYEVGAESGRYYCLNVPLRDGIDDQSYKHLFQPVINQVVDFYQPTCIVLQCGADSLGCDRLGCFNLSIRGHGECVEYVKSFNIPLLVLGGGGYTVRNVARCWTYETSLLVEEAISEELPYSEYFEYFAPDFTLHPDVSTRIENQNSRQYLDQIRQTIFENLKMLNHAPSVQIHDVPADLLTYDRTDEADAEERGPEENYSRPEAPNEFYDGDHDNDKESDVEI

Turning to `COCC(=O)CCCCC[C@@H]1NC(=O)[C@H]2CCCN2C(=O)[C@H](Cc2ccccc2)NC(=O)C(C)(C)NC1=O` [Ky-9, cyclo(-L-Ae9(Mmk)-Aib-L-Phe-D-Pro-)], the figures for the IC50 (at human HDAC4; in assay [2]; in assay [3]) were 28 nM, at most 100 nM and at most 100 nM, respectively. Besides, the “p21 promoter activity EC1000” value in assay [1] amounted to 0.043 µM.
